From US20130184316A1, “METHODS FOR DIAGNOSING AND TREATING CONCUSSIVE DISORDERS” (priority 2010, published 2013)

Key:
subject with PCS = test: Balance and mobility assessed by Hi-Mat test; assay type: in vivo, human
Method: A single subject, prospective, double blind, placebo controlled trial of 4AP was then conducted in this individual. IRB approvals were obtained from all participating institutions and Subject gave written informed consent for all parts of the study. After a 4-week medication washout period, the Subject was randomly assigned a week's course of placebo, followed by a weeklong medication washout period, followed by another week on 4-AP (10 mg twice daily). Based on the medication half-life, a one week washout period was presumed to be sufficient. Subject and assessors were blinded to treatment allocation.
Measurements conducted at identical times at baseline and on each of the subsequent 3 weeks of the study included: • Balance and mobility assessed by Hi-Mat test (Arch. Phys. Med. Rehabil. 2006, 87(3), 437-442; hereby incorporated by reference in its entirety). • Subjective symptom assessment using the Rivermead Post-Concussion Questionnaire (Clin. Rehabil. 2005, 19(8), 878-887; hereby incorporated by reference in its entirety). • Neuropsychological assessment, consisting of the digit span and cancellation tests from the Wechsler Adult Intelligence Scale, 4th edition (Coalson, D. L., Engi-Raiford, S. Wechsler Adult Intelligence Scale, 4th Ed., in Technical and Interpretive Manual, 4th Ed., San Antonio: Pearson (2008); hereby incorporated by reference in its entirety), the California Verbal Learning Test II (CVLT) (Delis, D. C., Kramer, J. H., Kaplan, E., Ober, B. A. in CVLT-II Manual, San Antonio: The Psychological Corporation (2000); hereby incorporated by reference in its entirety), the Verbal Fluency Test (Connors Continuous Performance Test Computer II Program Version 5 Users Manual, Toronto: Multi-Health Systems, Inc. (2002); hereby incorporated by reference in its entirety), and the Connors Continuous Performance Test (J. Nervous Ment. Dis. 1985, 173(6), 353-357; hereby incorporated by reference in its entirety). • Videonystagmography (VNG) and rotary chair (RC) vestibular testing […]

[1] = tested on: EA2 mutant Purkinje cells; conditions: literature (J. Neurosci. 2010), cited from earlier work

Nc1ccncc1 [4-AP, 4-Amino pyridine]
HiMat score (subject with PCS; session 4 Active: blinded, one week on 4-AP 10 mg twice daily, baseline 18, placebo 28, washout 28): 31 | HiMat score (subject with PCS; session 5 1st Open: open-label 4AP 10 mg twice daily, 5 weeks after conclusion of the formal study): 32 | HiMat score (subject with PCS; session 6 2nd Open: open-label 4AP 10 mg twice daily, 9 weeks after conclusion of the formal study): 50 | Purkinje cell excitability, spontaneous activity or firing rate ([1]; models of episodic ataxia): does not increase | Functional consequence of treatment in EA2 mutant Purkinje cells ([1]; via blockage of potassium channels): restoration of the precision of pacemaking
